Blank lines part the entries; values can stand above or below the compound they belong to. Active and inactive are the calls of the source. For most assays here, no stated cut-off is given here; in the data, actives have a measured IC50 and inactives only a lower limit.
What was measured:
[1] = molecular target: T1, Dual specificity protein phosphatase 6 (Rattus norvegicus, UniProt Q64346); format: functional
T1 sequence (Q64346 whole entry): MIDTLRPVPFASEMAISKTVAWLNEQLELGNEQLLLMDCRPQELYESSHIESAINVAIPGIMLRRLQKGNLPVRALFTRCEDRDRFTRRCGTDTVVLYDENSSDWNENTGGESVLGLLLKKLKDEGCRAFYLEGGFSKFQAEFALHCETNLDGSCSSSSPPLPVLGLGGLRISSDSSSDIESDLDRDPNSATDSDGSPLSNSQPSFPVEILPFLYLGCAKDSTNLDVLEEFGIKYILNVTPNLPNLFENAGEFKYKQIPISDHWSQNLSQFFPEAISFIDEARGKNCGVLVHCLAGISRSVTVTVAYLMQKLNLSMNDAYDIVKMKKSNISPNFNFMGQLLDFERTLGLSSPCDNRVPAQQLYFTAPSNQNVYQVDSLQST

[2] = molecular target: Glyceraldehyde-3-phosphate dehydrogenase (Homo sapiens, UniProt P04406)
Glyceraldehyde-3-phosphate dehydrogenase, sequence (P04406 whole entry): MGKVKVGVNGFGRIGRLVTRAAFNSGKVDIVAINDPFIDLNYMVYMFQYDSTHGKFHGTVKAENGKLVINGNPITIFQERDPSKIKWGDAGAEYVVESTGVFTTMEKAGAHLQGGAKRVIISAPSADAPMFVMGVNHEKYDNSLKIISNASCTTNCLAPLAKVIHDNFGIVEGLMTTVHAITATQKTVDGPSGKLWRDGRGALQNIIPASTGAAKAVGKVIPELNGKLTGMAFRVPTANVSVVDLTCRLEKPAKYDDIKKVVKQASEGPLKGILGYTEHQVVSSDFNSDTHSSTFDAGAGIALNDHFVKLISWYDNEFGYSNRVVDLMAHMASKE

[3] = molecular target: T1, Dual specificity protein phosphatase 6
[4] = molecular target: T2, Tyrosine-protein phosphatase non-receptor type 7 (Homo sapiens, UniProt P35236); format: functional
T2 sequence (P35236 whole entry): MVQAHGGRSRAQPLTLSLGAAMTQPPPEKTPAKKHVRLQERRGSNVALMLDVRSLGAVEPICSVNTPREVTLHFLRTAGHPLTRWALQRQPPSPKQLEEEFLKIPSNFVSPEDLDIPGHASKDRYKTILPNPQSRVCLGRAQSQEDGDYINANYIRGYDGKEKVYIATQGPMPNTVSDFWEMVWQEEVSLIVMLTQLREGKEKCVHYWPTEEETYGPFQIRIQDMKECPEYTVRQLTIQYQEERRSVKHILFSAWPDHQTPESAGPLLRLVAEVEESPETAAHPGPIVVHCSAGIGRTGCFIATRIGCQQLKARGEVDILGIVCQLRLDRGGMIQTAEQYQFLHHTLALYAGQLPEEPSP

CAAX prenyl protease 2 [5] = molecular target: CAAX prenyl protease 2 (Saccharomyces cerevisiae S288c, UniProt Q03530); format: biochemical
CAAX prenyl protease 2 (Saccharomyces cerevisiae S288c, UniProt Q03530), sequence (Q03530 whole entry, the tested form may be a part): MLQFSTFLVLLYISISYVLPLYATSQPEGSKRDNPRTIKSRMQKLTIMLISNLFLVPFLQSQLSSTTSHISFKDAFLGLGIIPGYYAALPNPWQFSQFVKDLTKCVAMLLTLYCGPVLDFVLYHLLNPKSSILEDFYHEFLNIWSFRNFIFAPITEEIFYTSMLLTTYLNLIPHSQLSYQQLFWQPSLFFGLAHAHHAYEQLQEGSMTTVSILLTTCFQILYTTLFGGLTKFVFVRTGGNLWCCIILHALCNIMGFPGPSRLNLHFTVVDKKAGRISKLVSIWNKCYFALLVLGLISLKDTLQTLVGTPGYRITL

[6] = molecular target: Disintegrin and metalloproteinase domain-containing protein 17 (Homo sapiens, UniProt P78536); test: exosite inhibitors of ADAM17, dose response, biochemical (AID 743260)
Disintegrin and metalloproteinase domain-containing protein 17, sequence (P78536 whole entry, the tested form may be a part): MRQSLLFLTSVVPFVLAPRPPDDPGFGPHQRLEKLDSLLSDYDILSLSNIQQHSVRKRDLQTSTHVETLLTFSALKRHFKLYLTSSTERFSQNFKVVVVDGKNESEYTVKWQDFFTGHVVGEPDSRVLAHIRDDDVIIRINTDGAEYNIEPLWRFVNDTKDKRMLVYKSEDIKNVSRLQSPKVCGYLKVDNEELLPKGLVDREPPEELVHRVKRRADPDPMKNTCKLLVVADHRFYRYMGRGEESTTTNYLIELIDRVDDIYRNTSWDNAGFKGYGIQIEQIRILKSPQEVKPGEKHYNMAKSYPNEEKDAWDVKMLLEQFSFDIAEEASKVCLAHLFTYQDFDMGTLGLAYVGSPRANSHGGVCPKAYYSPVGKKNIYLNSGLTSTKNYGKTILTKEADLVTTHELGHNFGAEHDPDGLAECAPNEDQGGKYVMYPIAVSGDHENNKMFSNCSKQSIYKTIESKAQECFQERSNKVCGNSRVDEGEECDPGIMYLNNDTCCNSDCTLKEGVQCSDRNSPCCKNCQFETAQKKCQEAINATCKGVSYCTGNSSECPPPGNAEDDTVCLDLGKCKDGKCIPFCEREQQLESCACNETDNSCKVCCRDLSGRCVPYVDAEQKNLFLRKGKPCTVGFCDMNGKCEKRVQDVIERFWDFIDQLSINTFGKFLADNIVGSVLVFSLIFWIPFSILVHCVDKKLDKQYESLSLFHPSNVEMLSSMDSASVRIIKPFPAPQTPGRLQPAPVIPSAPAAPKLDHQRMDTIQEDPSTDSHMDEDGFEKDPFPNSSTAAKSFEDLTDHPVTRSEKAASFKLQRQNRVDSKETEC

[7] = inhibition of ADAM10 peptide cleavage – biochemical, FRET peptide substrate, recombinant human ADAM10, selectivity assay for ADAM17 exosite inhibitor project, dose response (AID 743259);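 further: ADAM10 enzyme cleaving a FRET peptide substrate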
CAAX prenyl protease 2 [8] = molecular target: T3, CAAX prenyl protease 2 (Homo sapiens, UniProt Q9Y256); test: inhibition of Ras-converting CAAX protease Rce1 – biochemical, yeast membranes, quenched-peptide fluorescence, cherry-pick, dose response (AID 588849)
T3 sequence (Q9Y256 whole entry): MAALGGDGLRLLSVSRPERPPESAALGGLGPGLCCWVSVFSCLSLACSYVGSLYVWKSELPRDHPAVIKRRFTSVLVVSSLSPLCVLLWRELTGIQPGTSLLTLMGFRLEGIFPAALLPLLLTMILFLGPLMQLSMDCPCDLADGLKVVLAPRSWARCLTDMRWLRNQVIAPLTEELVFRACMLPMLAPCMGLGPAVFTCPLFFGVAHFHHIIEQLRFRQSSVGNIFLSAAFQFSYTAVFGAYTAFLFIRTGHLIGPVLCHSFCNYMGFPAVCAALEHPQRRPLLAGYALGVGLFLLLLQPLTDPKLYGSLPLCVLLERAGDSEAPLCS

[9] = viability of uninfected HEp-2 cells – cell-based, HTS, cytotoxicity control for RSV inhibitor project, dose response (AID 2410); format: functional; details: human respiratory syncytial virus
[10] = molecular target: Nucleotide-binding oligomerization domain-containing protein 2 (Homo sapiens, UniProt Q9HC29); test: PubChem AID 2334; format: functional
Nucleotide-binding oligomerization domain-containing protein 2, sequence (Q9HC29 whole entry, the tested form may be a part): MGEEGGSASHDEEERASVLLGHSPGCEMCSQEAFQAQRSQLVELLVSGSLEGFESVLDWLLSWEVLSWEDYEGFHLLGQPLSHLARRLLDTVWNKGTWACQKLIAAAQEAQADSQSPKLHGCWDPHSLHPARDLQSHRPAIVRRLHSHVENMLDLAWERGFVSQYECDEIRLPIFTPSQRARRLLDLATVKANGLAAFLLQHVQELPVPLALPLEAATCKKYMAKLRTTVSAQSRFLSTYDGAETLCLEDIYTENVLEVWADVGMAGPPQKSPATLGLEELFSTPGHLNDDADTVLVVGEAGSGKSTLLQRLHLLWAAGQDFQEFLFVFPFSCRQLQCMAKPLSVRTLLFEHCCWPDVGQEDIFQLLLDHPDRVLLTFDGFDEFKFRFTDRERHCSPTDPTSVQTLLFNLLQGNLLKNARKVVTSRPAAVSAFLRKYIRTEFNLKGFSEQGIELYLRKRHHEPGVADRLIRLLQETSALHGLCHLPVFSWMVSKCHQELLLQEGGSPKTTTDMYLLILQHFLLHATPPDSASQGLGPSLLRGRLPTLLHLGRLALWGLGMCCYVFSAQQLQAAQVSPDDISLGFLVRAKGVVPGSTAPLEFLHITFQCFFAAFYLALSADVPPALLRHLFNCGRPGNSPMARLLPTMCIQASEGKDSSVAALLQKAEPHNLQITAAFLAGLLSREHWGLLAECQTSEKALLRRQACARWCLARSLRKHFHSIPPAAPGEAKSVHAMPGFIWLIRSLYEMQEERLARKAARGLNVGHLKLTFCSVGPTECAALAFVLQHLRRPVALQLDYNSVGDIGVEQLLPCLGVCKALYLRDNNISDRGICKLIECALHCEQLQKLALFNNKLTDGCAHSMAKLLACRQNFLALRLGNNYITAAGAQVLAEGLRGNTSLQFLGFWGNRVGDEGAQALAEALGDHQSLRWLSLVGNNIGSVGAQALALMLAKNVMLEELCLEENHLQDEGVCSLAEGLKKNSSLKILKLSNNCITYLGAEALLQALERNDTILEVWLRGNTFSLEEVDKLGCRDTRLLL

[11] = molecular target: T4, Nucleotide-binding oligomerization domain-containing protein 1 (Homo sapiens, UniProt Q9Y239); test: blockers of NOD1 pathway activity – revised, SAR follow-up (AID 2333); format: functional
T4 sequence (Q9Y239 whole entry): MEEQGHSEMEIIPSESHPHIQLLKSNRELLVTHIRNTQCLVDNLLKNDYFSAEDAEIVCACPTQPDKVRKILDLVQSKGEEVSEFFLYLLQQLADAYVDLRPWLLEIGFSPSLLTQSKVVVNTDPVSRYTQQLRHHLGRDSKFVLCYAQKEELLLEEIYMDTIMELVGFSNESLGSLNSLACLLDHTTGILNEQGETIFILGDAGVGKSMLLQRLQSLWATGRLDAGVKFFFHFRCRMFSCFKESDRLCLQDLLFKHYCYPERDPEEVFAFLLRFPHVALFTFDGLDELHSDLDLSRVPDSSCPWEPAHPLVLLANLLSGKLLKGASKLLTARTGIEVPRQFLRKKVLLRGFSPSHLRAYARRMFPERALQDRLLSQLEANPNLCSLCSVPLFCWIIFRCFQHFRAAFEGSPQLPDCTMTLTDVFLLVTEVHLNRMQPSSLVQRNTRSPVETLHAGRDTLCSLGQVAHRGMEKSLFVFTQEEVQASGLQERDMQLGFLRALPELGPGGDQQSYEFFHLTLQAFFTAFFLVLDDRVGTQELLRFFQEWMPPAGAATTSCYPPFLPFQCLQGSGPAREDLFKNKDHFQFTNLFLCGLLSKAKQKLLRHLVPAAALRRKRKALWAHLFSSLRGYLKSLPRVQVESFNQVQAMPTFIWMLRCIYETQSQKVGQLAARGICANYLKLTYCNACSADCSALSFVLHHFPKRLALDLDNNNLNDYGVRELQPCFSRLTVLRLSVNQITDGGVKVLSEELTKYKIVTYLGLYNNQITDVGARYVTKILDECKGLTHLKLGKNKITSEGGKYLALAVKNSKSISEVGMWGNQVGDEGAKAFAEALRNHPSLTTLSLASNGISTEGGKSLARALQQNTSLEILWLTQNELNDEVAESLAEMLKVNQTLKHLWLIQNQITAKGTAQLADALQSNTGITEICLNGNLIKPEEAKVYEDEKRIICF

Tumor necrosis factor = Tumor necrosis factor (Homo sapiens, UniProt P01375); test: analog potency on TNFa NF-kB signaling – cell-based, revised, SAR follow-up (AID 2337); format: functional
Tumor necrosis factor, sequence (P01375 whole entry): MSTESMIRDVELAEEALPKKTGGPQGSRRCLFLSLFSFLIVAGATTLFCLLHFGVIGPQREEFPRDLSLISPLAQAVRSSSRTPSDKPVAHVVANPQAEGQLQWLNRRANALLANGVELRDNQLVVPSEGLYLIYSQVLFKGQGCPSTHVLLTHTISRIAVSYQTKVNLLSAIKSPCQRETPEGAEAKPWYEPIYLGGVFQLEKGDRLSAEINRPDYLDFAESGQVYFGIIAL

HEK293 = test: cells; details: Homo sapiens;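 further: cells exposed to compound for 14 hours overnight before viability readout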
[12] = molecular target: DNA dC->dU-editing enzyme APOBEC-3G (Homo sapiens, UniProt Q9HC16); test: Dose Response confirmation of small molecule APOBEC3G DNA Deaminase Inhibitors via a fluorescence-based single-stranded DNA deaminase assay. [Related pubchem assays (depositor defined):AID493012, AID493028]; format: functional
DNA dC->dU-editing enzyme APOBEC-3G, sequence (Q9HC16 whole entry): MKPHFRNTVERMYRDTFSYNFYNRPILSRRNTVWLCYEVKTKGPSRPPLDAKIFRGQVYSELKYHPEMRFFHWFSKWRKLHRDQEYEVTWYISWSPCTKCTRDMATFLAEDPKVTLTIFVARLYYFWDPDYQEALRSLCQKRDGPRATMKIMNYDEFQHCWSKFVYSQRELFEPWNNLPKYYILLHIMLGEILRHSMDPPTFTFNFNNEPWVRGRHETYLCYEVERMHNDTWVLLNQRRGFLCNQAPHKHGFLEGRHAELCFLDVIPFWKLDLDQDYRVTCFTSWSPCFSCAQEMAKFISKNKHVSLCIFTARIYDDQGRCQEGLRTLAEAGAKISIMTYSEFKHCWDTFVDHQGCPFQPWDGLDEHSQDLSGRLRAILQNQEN

[13] = molecular target: DNA dC->dU-editing enzyme APOBEC-3A (Homo sapiens, UniProt P31941); test: A3A deaminase inhibition for selectivity – biochemical, dose response (AID 504722); format: functional
DNA dC->dU-editing enzyme APOBEC-3A, sequence (P31941 whole entry): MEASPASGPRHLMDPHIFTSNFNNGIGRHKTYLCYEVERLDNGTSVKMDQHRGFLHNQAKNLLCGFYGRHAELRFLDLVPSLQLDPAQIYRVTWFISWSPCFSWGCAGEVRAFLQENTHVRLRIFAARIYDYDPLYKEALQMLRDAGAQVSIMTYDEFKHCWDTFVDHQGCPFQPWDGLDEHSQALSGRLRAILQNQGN

IC50 [1]: > 100 µM (inactive)
IC50 [2]: > 100 µM (not active)
IC50 [3]: > 100 µM (inactive)
IC50 [4]: > 100 µM (not active)
Structure (SMILES): CCOC(=O)C1Nc2c(O)ccc(C)c2C2C=CCC12 (centres undefined)

AC50 (CAAX prenyl protease 2 [5]): 17.5 µM (active)
IC50 [6]: > 69.5 µM (inactive)
AC50 (CAAX prenyl protease 2 [8]): 0.183 µM (active)
Structure (SMILES): CCO[C@H]1OC(C(=O)Nc2ccccc2)=C[C@@H](c2csc3ccccc23)[C@@H]1CCCO
IC50 [7]: 11.2 µM (inactive)
CC50 [9]: 18.7 µM (active)

The next lines start with the compound.

Structure (SMILES): N#C/C(=C(/O)COC(=O)CSc1ccc2ccccc2c1)c1nc2ccccc2[nH]1
IC50 [10]: > 20 µM (inactive)
IC50 [11]: > 20 µM (inactive)
IC50 (Tumor necrosis factor): > 20 µM (inactive)
IC50 (HEK293): > 20 µM (inactive)

Structure (SMILES): CC(/C=N/n1c(S)nnc1-c1cc(C)[nH]n1)=C\c1ccco1
IC50 [12]: 2.47 µM (active)
IC50 [13]: > 100 µM (inactive)

Structure (SMILES): CCCCCCn1c(=O)nc(NCc2ccccc2OC)[nH]c1=O
IC50 [1]: > 100 µM (inactive)
IC50 [2]: > 100 µM (not active)
IC50 [3]: > 100 µM (inactive)
IC50 [4]: > 100 µM (not active)
